Test: Log P by HPLC on reversed phase columns (EEC directive 79/831 Annex V.A8)
Assay type: physicochemical
Conditions: not given
Procedure: Measurement of Log P values was performed according to EEC directive 79/831 Annex V.A8 by HPLC (High Performance Liquid Chromatography) on reversed phase columns with the following methods:
[^a] Log P value is determined by measurement of LC-UV, in an acidic range, with 0.1% formic acid in water and acetonitrile as eluent (linear gradient from 10% acetonitrile to 95% acetonitrile).
[^b] Log P value is determined by measurement of LC-UV, in a neutral range, with 0.001 molar ammonium acetate solution in water and acetonitrile as eluent (linear gradient from 10% acetonitrile to 95% acetonitrile).
[^c] Log P value is determined by measurement of LC-UV, in an acidic range, with 0.1% phosphoric acid and acetonitrile as eluent (linear gradient from 10% acetonitrile to 95% acetonitrile).
Calibration was done with straight-chain alkan-2-ones (with 3 to 16 carbon atoms) with known Log P values (measurement of Log P values using retention times with linear interpolation between successive alkanones). Lambda-max-values were determined using UV-spectra from 200 nm to 400 nm and the peak values of the chromatographic signals.

| Compound | LogP [a] | LogP [c] | LogP [b] |
| --- | --- | --- | --- |
| C=CCOc1cc(F)c(Nc2c(-c3ccc(F)cc3Cl)c(C)nn2C)c(F)c1 [Example I-02] | 3.54^[a]; | 3.40^[c] | – |
| C#CCOc1cc(F)c(Nc2c(-c3ccc(F)cc3Cl)c(C)nn2C)c(F)c1 [Example I-03] | 3.09^[a]; | 2.90^[c] | – |
| C#CCOc1cc(F)cc(F)c1Nc1c(-c2ccc(Cl)cc2Cl)c(C)nn1C [Example I-05] | 3.69^[a] | – | – |
| C#CCOc1cc(F)cc(F)c1Nc1c(-c2ccccc2F)c(C)nn1C [Example I-07] | 2.96^[a] | – | – |
| C#CCOc1cc(F)c(Nc2c(-c3ccc(Cl)cc3Cl)c(C)nn2C)c(F)c1 [Example I-09] | 3.44^[a] | – | – |
| C#CCOc1cc(F)c(Nc2c(-c3cc(OC)cc(OC)c3)c(C)nn2C)c(F)c1 [Example I-10] | 2.73^[a] | – | – |
| C=CCOc1cc(F)c(Nc2c(-c3cc(OC)cc(OC)c3)c(C)nn2C)c(F)c1 [Example I-11] | 3.11^[a] | – | – |
| C#CCOc1cc(F)cc(F)c1Nc1c(-c2cc(OC)cc(OC)c2)c(C)nn1C [Example I-12] | 2.85^[a] | – | – |
| C=CCOc1cc(F)c(Nc2c(-c3ccccc3F)c(C)nn2C)c(F)c1 [Example I-13] | 3.22^[a] | – | – |
| C=CCOc1cc(F)c(Nc2c(-c3ccc(Cl)nc3)c(C)nn2C)c(F)c1 [Example I-21] | 2.95^[a]; | – | 2.92^[b] |
| C=CCOc1ccc(-c2c(C)nn(C)c2Nc2c(F)cc(OCC=C)cc2F)c(F)c1 [Example I-23] | 3.62^[a] | – | – |
| C#CCOc1cc(F)cc(F)c1Nc1c(-c2ccc(Cl)nc2)c(C)nn1C [Example I-25] | 2.69^[a]; | – | 2.63^[b] |
| C#CCOc1ccc(-c2c(C)nn(C)c2Nc2c(F)cc(F)cc2OCC#C)c(F)c1 [Example I-26] | 2.88^[a] | – | – |
| C#CCOc1ccc(-c2c(C)nn(C)c2Nc2c(F)cc(OCC#C)cc2F)c(F)c1 [Example I-27] | 2.77^[a] | – | – |
| C#CCOc1ccc(-c2c(C)nn(C)c2Nc2c(F)cc(OCC=C)cc2F)c(F)c1 [Example I-28] | 3.13^[a] | – | – |
| C=CCOc1ccc(Nc2c(-c3ccc(F)cc3Cl)c(C)nn2C)cc1 [Example I-30] | 3.51^[a]; | – | 3.52^[b] |
| C#CCOc1ccc(Nc2c(-c3ccc(F)cc3Cl)c(C)nn2C)cc1 [Example I-31] | 3.09^[a]; | – | 3.06^[b] |
| C#CCOc1ccc(Nc2c(-c3ccc(F)cc3Cl)c(C)nn2C)c(Cl)c1 [Example I-32] | 3.65^[a]; | – | 3.59^[b] |
| C#CCOc1cc(F)c(Nc2c(-c3ccc(F)cc3Cl)c(C)nn2C)cc1F [Example I-33] | 3.33^[a]; | 3.20^[c] | 3.23^[b]; |
| C=CCOc1cc(F)c(Nc2c(-c3ccc(F)cc3Cl)c(C)nn2C)cc1F [Example I-34] | 3.74^[a]; | 3.60^[c] | 3.66^[b]; |

| Compound | LogP [a] | LogP [c] | LogP [b] |
| --- | --- | --- | --- |
| C=CCOc1ccc(Nc2c(-c3ccc(F)cc3Cl)c(C)nn2C)cc1F [Example I-35] | 3.61^[a]; | 3.50^[c] | 3.56^[b]; |
| C=CCOc1ccc(F)c(Nc2c(-c3ccc(F)cc3Cl)c(C)nn2C)c1 [Example I-37] | 3.78^[a]; | 3.70^[c] | 3.73^[b]; |
| C#CCOc1ccc(F)c(Nc2c(-c3ccc(F)cc3Cl)c(C)nn2C)c1 [Example I-38] | 3.33^[a]; | 3.20^[c] | 3.27^[b]; |
| C#CCOc1cc(F)c(Nc2c(-c3ccc(Cl)cc3Cl)c(C)nn2C)cc1F [Example I-39] | 3.70^[a]; | 3.60^[c] | 3.62^[b]; |
| C=CCOc1ccc(Nc2c(-c3ccc(F)cc3Cl)c(C)nn2C)c(Cl)c1 [Example I-41] | 4.23^[a]; | – | 4.20^[b] |
| C#CCOc1cc(F)cc(F)c1Nc1c(-c2ccc(F)cc2Br)c(C)nn1C [Example I-42] | 3.33^[a]; | – | 3.32^[b] |
| C#CCOc1ccccc1Nc1c(-c2ccc(F)cc2Br)c(C)nn1C [Example I-43] | 3.60^[a] | – | – |
| C#CCOc1ccc(F)cc1Nc1c(-c2ccc(F)cc2Br)c(C)nn1C [Example I-45] | 3.64^[a] | – | – |
| C=CCOc1cc(C)ccc1Nc1c(-c2ccc(F)cc2Br)c(C)nn1C [Example I-46] | 4.39^[a] | – | – |
| C#CCOc1cc(C)ccc1Nc1c(-c2ccc(F)cc2Br)c(C)nn1C [Example I-47] | 3.87^[a] | – | – |
| C=CCOc1ccccc1Nc1c(-c2ccc(F)cc2Cl)c(C)nn1C [Example I-48] | 3.99^[a] | – | – |
| C#CCOc1ccccc1Nc1c(-c2ccc(F)cc2Cl)c(C)nn1C [Example I-49] | 3.53^[a] | – | – |
| C=CCOc1cc(C)ccc1Nc1c(-c2ccc(F)cc2Cl)c(C)nn1C [Example I-52] | 4.32^[a] | – | – |
| C=CCOc1ccccc1Nc1c(-c2ccc(Cl)cc2Cl)c(C)nn1C [Example I-54] | 4.49^[a] | – | – |
| C=CCOc1cc(C)ccc1Nc1c(-c2ccc(Cl)cc2Cl)c(C)nn1C [Example I-57] | 4.85^[a] | – | – |
| C#CCOc1cc(C)ccc1Nc1c(-c2ccc(Cl)cc2Cl)c(C)nn1C [Example I-58] | 4.30^[a] | – | – |
| C#CCOc1cc(F)cc(F)c1Nc1c(-c2c(F)cc(Cl)cc2F)c(C)nn1C [Example I-60] | 3.49^[a] | – | – |
| C#CCOc1cc(F)c(-c2c(C)nn(C)c2Nc2c(F)cc(F)cc2OCC#C)c(F)c1 [Example I-63] | 2.99^[a] | – | – |
| C#CCOc1cccc(Cl)c1Nc1c(-c2ccc(F)cc2Cl)c(C)nn1C [Example I-64] | 3.56^[a] | – | – |
| C=CCOc1cccc(Cl)c1Nc1c(-c2ccc(F)cc2Cl)c(C)nn1C [Example I-65] | 4.06^[a] | – | – |

Further lines, results first:

| LogP [a] | LogP [c] | LogP [b] | Compound |
| --- | --- | --- | --- |
| 4.40^[a] | – | – | C=CCOc1cc(F)c(N(C)c2c(-c3ccc(F)cc3Cl)c(C)nn2C)c(F)c1 [Example I-04] |
| 2.78^[a] | – | – | C#CCOc1cc(F)c(Nc2c(-c3ccccc3F)c(C)nn2C)c(F)c1 [Example I-06] |
| 3.97^[a] | – | – | C=CCOc1cc(F)c(Nc2c(-c3ccc(Cl)cc3Cl)c(C)nn2C)c(F)c1 [Example I-08] |
| 2.90^[a] | – | – | C#CCOc1cc(F)c(Nc2c(-c3ccc(F)cc3F)c(C)nn2C)c(F)c1 [Example I-14] |
| 3.33^[a] | – | – | C=CCOc1cc(F)c(Nc2c(-c3ccc(F)cc3F)c(C)nn2C)c(F)c1 [Example I-15] |
| 3.07^[a] | – | – | C#CCOc1cc(F)cc(F)c1Nc1c(-c2ccc(F)cc2F)c(C)nn1C [Example I-16] |
| 2.74^[a] | – | – | C#CCOc1cc(F)c(Nc2c(-c3ccc(OC)cc3F)c(C)nn2C)c(F)c1 [Example I-17] |
| 3.11^[a] | – | – | C=CCOc1cc(F)c(Nc2c(-c3ccc(OC)cc3F)c(C)nn2C)c(F)c1 [Example I-18] |
| 2.86^[a] | – | – | C#CCOc1cc(F)cc(F)c1Nc1c(-c2ccc(OC)cc2F)c(C)nn1C [Example I-19] |
| 2.56^[a]; | – | 2.54^[b] | C#CCOc1cc(F)c(Nc2c(-c3ccc(Cl)nc3)c(C)nn2C)c(F)c1 [Example I-20] |
| 3.17^[a] | – | – | C#CCOc1cc(F)c(Nc2c(-c3ccc(OCC=C)cc3F)c(C)nn2C)c(F)c1 [Example I-24] |
| 3.25^[a]; | – | 3.22^[b] | C#CCOc1ccc(Nc2c(-c3ccc(F)cc3Cl)c(C)nn2C)c(F)c1 [Example I-29] |
| 3.17^[a]; | 3.10^[c] | 3.14^[b]; | C#CCOc1ccc(Nc2c(-c3ccc(F)cc3Cl)c(C)nn2C)cc1F [Example I-36] |
| 4.13^[a]; | 4.00^[c] | 4.06^[b]; | C#CCOc1ccc(Nc2c(-c3ccc(Cl)cc3Cl)c(C)nn2C)c(Cl)c1 [Example I-40] |
| 4.08^[a] | – | – | C=CCOc1ccc(F)cc1Nc1c(-c2ccc(F)cc2Br)c(C)nn1C [Example I-44] |
| 4.01^[a] | – | – | C=CCOc1ccc(F)cc1Nc1c(-c2ccc(F)cc2Cl)c(C)nn1C [Example I-50] |
| 3.58^[a] | – | – | C#CCOc1ccc(F)cc1Nc1c(-c2ccc(F)cc2Cl)c(C)nn1C [Example I-51] |
| 3.83^[a] | – | – | C#CCOc1cc(C)ccc1Nc1c(-c2ccc(F)cc2Cl)c(C)nn1C [Example I-53] |
| 3.96^[a] | – | – | C#CCOc1ccccc1Nc1c(-c2ccc(Cl)cc2Cl)c(C)nn1C [Example I-55] |
| 4.49^[a] | – | – | C=CCOc1ccc(F)cc1Nc1c(-c2ccc(Cl)cc2Cl)c(C)nn1C [Example I-56] |
| 3.10^[a] | – | – | C#CCOc1cc(F)cc(F)c1Nc1c(-c2c(F)cc(F)cc2F)c(C)nn1C [Example I-59] |
| 3.00^[a] | – | – | C#CCOc1cc(F)cc(F)c1Nc1c(-c2c(F)cc(OC)cc2F)c(C)nn1C [Example I-61] |
| 2.85^[a] | – | – | C#CCOc1cc(F)c(Nc2c(-c3c(F)cc(OC)cc3F)c(C)nn2C)c(F)c1 [Example I-62] |
| 3.99^[a] | – | – | C#CCOc1cccc(Cl)c1Nc1c(-c2ccc(Cl)cc2Cl)c(C)nn1C [Example I-66] |

Same assay, conditions: LC-UV, acidic range, 0.1% formic acid in water and acetonitrile as eluent; read-out: LogP [a]

| Compound | chromatographic logP |
| --- | --- |
| CC(=O)Cc1ccc(O)cc1F [1-(2-fluoro-4-hydroxyphenyl)acetone] | 1.13 |

Same assay, conditions: reversed phase HPLC columns, LC-UV, acidic range, 0.1% formic acid in water and acetonitrile as eluent; read-out: LogP [a]

| chromatographic logP | Compound |
| --- | --- |
| 3.3 | C#CCOc1cc(F)cc(F)c1Nc1c(-c2ccc(OCC=C)cc2F)c(C)nn1C [Example I-22, 4-[4-(Allyloxy)-2-fluorophenyl]-N-[2,4-difluoro-6-(prop-2-yn-1-yloxy)phenyl]-1,3-dimethyl-1H-pyrazol-5-amine] |

Source: patent publication US10246420B2, “Pyrazole derivatives” (BAYER CROPSCIENCE AKTIENGESELLSCHAFT, priority 2014, dated 2019)
